Results as given in patent publication US20110152218A1, “CRYSTALLINE PHOSPHOLIPID, METHOD FOR ITS PRODUCTION AND USE IN TREATING DAMAGED TISSUE” (priority 2008, published 2011).

Key:
[1] = system: human peritoneal mesothelial cell (HPMC); assay: HPMC proliferation, Alamar Blue and MTT assay; type: cell-based; details: 48 hours and 72 hours; over the tested concentrations in supplemented M199
Protocol: The effect of a phospholipid prepared as described in Example 1 (and/or its constituent compounds) to induce human peritoneal mesothelial cell proliferation was assessed using an Alamar Blue™ assay and an MTT assay.
The Alamar Blue™ assay is designed to measure the proliferation of various cell types by measuring the ability of the cells to metabolise and reduce a REDOX indicator (Alamar Blue™). Reduction of the REDOX indicator results in a change in its fluorescent activity. Therefore the fluorescent activity measured is proportional to cell proliferation.
The MTT Assay measures the proliferations of various cells and is based on the mitochondrial conversion of tetrazolium salt 3-[4,5-dimethyl-thiazol-2-yl]-2,5-diphenyltetrazium bromide (MTT), into an insoluble formazan salt. The resultant colour change is directly related to the number of viable cells.
As described in Morgan L W et al (“Glucose degradation products (GDP) retard re-mesothelialisation independently of D-glucose concentration.” Kidney Int 64:1854-1866, 2003), primary HPMC are isolated from omental tissue biopsies donated by consenting patients undergoing elective abdominal surgery. Cells were grown to approximately 60% confluence in 96 well plates (Falcon) and used at passage 2. All cells were growth arrested in serum free M199 for 24 hours prior to use.
The supplemented M199 medium was prepared as follows. Earle's salt medium M199 was supplemented with 100μ/ml penicillin, 100 μg/ml streptomycin, 2 mM glutamine, 5 μg/ml insulin, 5 μg/ml transferrin and 0.4 μg/ml hydrocortisone and 2 mmol/L N-2-hydroxyethylpiperazine-N′-2ethanesulfonic acid.
The phospholipid prepared as described in Example 1 was prepared as follows. […]
The growth medium was aspirated from each well and then the well was washed once using 200 μl per well of supplemented M199. […] The fluorescent activity of Alamar Blue™ at 540 nm (wavelength) was measured using a Dynex Revalation 96-multiwell plate reader. […]

HPMC = HPMC ATP bioluminescence assay; type: cell-based, human; details: 72 hours
Protocol: The viability of HPMC after stimulation with FCS, phospholipid prepared according to Example 1 (Vibrated and Non-vibrated), lysophosphatidic acid (LPA), DPPC, DPPC/LPA, POPC, Curosurf, egg-PG (EPG) and the three Intralipid™ products was determined using an ATP assay. This assay measures the light emitted during the ATP dependant oxidation of luciferin in order to accurately quantify the ATP concentration.
As described in Example 3, primary HPMC are isolated from omental tissue biopsies donated by consenting patients undergoing elective abdominal surgery. Cells are grown to approximately 60% confluence in 96 well plates (Falcon) and used at passage 2. All cells are growth arrested in serum free M199 for 24 hours prior to use.
An ATP Bioluminescence Assay Kit CLS II (Roche Diagnostics, Cat No 1 699 695, 11857300) was used. It contains ATP Standard, Luciferase and distilled water. A 10 mM EDTA solution was prepared by dissolving 1.8612 g EDTA (Fischer Scientific, Code D/0650/60, Batch 0447430, Mr-372.24) in 500 ml H2O (or 3.7224 g in 1 litre). A BAC-extract solution was prepared by dissolving 1 g Benzalkonium Chloride (Sigma-Aldrich, Cat:-23, 442-7, Lot S22104-334) in 1 litre of 10 mM EDTA. […]
To mix, rotate the bottle carefully. • 2) Make up an ATP standard solution having a base concentration of 1.65 μM ATP. […] Use distilled water as the control. • 4) Set the Fluostar Optima plate reader to measure luminescence. Set the Fluostar Optima plate reader pump to inject 20 μl of luciferase into each of the required wells. • 5) Place the plate into the plate reader and measure the relative light units (RLU). • 6) Prepare a standard curve such as that shown in FIG. 16 by plotting a graph of RLU against ATP concentration.
96 well plates from the HPMC proliferation study were defrosted. […] The ATP concentrations were calculated from the RLU of the samples using the standard curve. As an alternative to using an ATP standard curve, data can be normalised to the un-stimulated control and expressed as “ATP (% of control)”.

Row | Molecule | HPMC proliferation compared to the negative control [1] | HPMC proliferation by ATP assay compared to the negative control (HPMC; 0.0875 mg/ml, FIG. 11G) | HPMC proliferation by ATP assay (ATP % of control) compared to the negative control (HPMC; single well, over the tested concentrations)
1 | CCCCCCCC/C=C\CCCCCCCC(=O)O[C@H](COC(=O)CCCCCCCCCCCCCCC)COP(=O)([O-])OCC[N+](C)(C)C [POPC, Palmitoyl oleoyl phosphatidyl choline] | no significant stimulation of HPMC proliferation | increased HPMC proliferation | –
2 | Lysophosphatidic acid [LPA] | no significant stimulation of HPMC proliferation | – | no increase of HPMC proliferation
